Values quoted from earlier work in patent US20250231185A1, “Coronavirus T Cell Epitopes, Megapools and Uses Thereof” (La Jolla Institute for Immunology, priority 2021, published 2025).
Like-named read-outs stand apart in the source and are kept apart here.

System: CD8+ T cells
Conditions: cited from earlier work
[1] = CD8R (D) megapool epitopes, dominant = recognized by 3 or more donors/different studies
[2] = SARS-CoV-2 Ag S, T cell type recognizing the epitope
[3] = T cell subset (CD4 or CD8) recognizing the SARS-CoV-2-derived epitope
[4] = T cell type (CD4 or CD8) recognizing the SARS-CoV-2 epitope
[5] = CD8RE megapool peptides (non-spike SARS-CoV-2 antigens), dominant epitope Yes/No
[6] = SARS-CoV-2-derived CD8 epitopes, dominant = recognized by 3 or more donors/different studies

1736 (KLNVGDYFV) [compound 1736]
Dominant [1]: Yes (more dominant epitopes are defined by being recognized by 3 or more donors/different studies)

1782 (VLAWLYAAV) [compound 1782]
Dominant [1]: Yes (more dominant epitopes are defined by being recognized by 3 or more donors/different studies)

1393 (QIPFAMQMAY) [compound 1393]
Restriction [2]: CD8

1676 (SELVIGAVIL) [compound 1676]
Dominant [1]: Yes (more dominant epitopes are defined by being recognized by 3 or more donors/different studies)

560 (APHGHVMVEL) [compound 560]
Restriction [3]: CD8

667 (SALNHTKKW) [compound 667]
Restriction [3]: CD8

1694 (LALLLLDRL) [compound 1694]
Dominant [1]: Yes (more dominant epitopes are defined by being recognized by 3 or more donors/different studies)

1773 (FLPRVFSAV) [compound 1773]
Dominant [1]: Yes (more dominant epitopes are defined by being recognized by 3 or more donors/different studies)

1002 (KQGDDYVYL) [compound 1002]
Restriction [4]: CD8

1810 (HLVDFQVTI) [compound 1810]
Dominant [1]: Yes (more dominant epitopes are defined by being recognized by 3 or more donors/different studies)

928 (YFVVKRHTF) [compound 928]
Restriction [4]: CD8

1438 (GVFVSNGTHW) [compound 1438]
Restriction [2]: CD8

1410 (AEVQIDRLI) [compound 1410]
Restriction [2]: CD8

1381 (LADAGFIKQY) [compound 1381]
Restriction [2]: CD8

1312 (NGVEGFNCY) [compound 1312]
Restriction [2]: CD8

1440 (VFVSNGTHWF) [compound 1440]
Restriction [2]: CD8

3027 (FTYASALWEI) [compound 3027]
Dominant [5]: Yes (more dominant epitopes are defined by being recognized by 3 or more donors/different studies)

2918 (KFPRGQGVPI) [compound 2918]
Dominant [5]: Yes (more dominant epitopes are defined by being recognized by 3 or more donors/different studies)

2924 (SPRWYFYYL) [compound 2924]
Dominant [5]: Yes (more dominant epitopes are defined by being recognized by 3 or more donors/different studies)

634 (AHAEETRKL) [compound 634]
Restriction [3]: CD8

628 (PTDNYITTY) [compound 628]
Dominant [6]: Yes (more dominant epitopes are defined by being recognized by 3 or more donors/different studies)
Restriction [3]: CD8

1076 (KVDGVVQQL) [compound 1076]
Restriction [4]: CD8

1049 (LQLGFSTGV) [compound 1049]
Restriction [4]: CD8

1434 (VTYVPAQEK) [compound 1434]
Restriction [2]: CD8

1779 (VRIQPGQTF) [compound 1779]
Dominant [1]: Yes (more dominant epitopes are defined by being recognized by 3 or more donors/different studies)

3051 (IQYIDIGNY) [compound 3051]
Dominant [5]: Yes (more dominant epitopes are defined by being recognized by 3 or more donors/different studies)

539 (GMSRIGMEV) [compound 539]
Dominant [6]: Yes (more dominant epitopes are defined by being recognized by 3 or more donors/different studies)
Restriction [3]: CD8

554 (KKQQTVTLL) [compound 554]
Restriction [3]: CD8

1409 (AEVQIDRL) [compound 1409]
Restriction [2]: CD8

1093 (KLMGHFAWW) [compound 1093]
Restriction [4]: CD8

1758 (KTIQPRVEK) [compound 1758]
Dominant [1]: Yes (more dominant epitopes are defined by being recognized by 3 or more donors/different studies)

1062 (FTDGVCLFW) [compound 1062]
Restriction [4]: CD8

517 (SSRGTSPAR) [compound 517]
Restriction [3]: CD8

1399 (IANQFNSAI) [compound 1399]
Restriction [2]: CD8

540 (GMEVTPSGTWLTY) [compound 540]
Dominant [6]: Yes (more dominant epitopes are defined by being recognized by 3 or more donors/different studies)
Restriction [3]: CD8

2963 (LYLQYIRKL) [compound 2963]
Dominant [5]: Yes (more dominant epitopes are defined by being recognized by 3 or more donors/different studies)

1788 (SMWALIISV) [compound 1788]
Dominant [1]: Yes (more dominant epitopes are defined by being recognized by 3 or more donors/different studies)

1018 (TPHTVLQAV) [compound 1018]
Restriction [4]: CD8

643 (SVYYTSNPTTF) [compound 643]
Restriction [3]: CD8

533 (AQFAPSASAF) [compound 533]
Dominant [6]: Yes (more dominant epitopes are defined by being recognized by 3 or more donors/different studies)
Restriction [3]: CD8

1729 (VLQAVGACV) [compound 1729]
Dominant [1]: Yes (more dominant epitopes are defined by being recognized by 3 or more donors/different studies)

571 (ILSPLYAFA) [compound 571]
Restriction [3]: CD8

ORF1ab 3183-3191: SARS-CoV-2 ORF1ab 3183-3191 CD8 epitope among 14 peptides screened in the Habel et al. study (FLLNKEMYL; CD8 epitope peptide; UniProt P0DTD1 3183-3191, looked up, fragment) [reference compound]
IFN-f response (Habel et al., 14 peptides screened, HLA-A*02:01): less prominently recognized

1331 (TPCSFGGVSV) [compound 1331]
Restriction [2]: CD8

2969 (VVYRGTTTYK) [compound 2969]
Dominant [5]: Yes (more dominant epitopes are defined by being recognized by 3 or more donors/different studies)

1762 (PTDNYITTY) [compound 1762]
Dominant [1]: Yes (more dominant epitopes are defined by being recognized by 3 or more donors/different studies)

1746 (SYATHSDKF) [compound 1746]
Dominant [1]: Yes (more dominant epitopes are defined by being recognized by 3 or more donors/different studies)

589 (ELDERIDKV) [compound 589]
Restriction [3]: CD8

3046 (QLRARSVSPK) [compound 3046]
Dominant [5]: Yes (more dominant epitopes are defined by being recognized by 3 or more donors/different studies)

953 (VVSTGYHFR) [compound 953]
Restriction [4]: CD8

1078 (KPRSQMEIDF) [compound 1078]
Restriction [4]: CD8

1805 (YLYALVYFL) [compound 1805]
Dominant [1]: Yes (more dominant epitopes are defined by being recognized by 3 or more donors/different studies)

1759 (KLVNKFLAL) [compound 1759]
Dominant [1]: Yes (more dominant epitopes are defined by being recognized by 3 or more donors/different studies)

656 (KPHNSHEGKTF) [compound 656]
Restriction [3]: CD8

1048 (EEAIRHVRAW) [compound 1048]
Restriction [4]: CD8

2983 (MMISAGFSL) [compound 2983]
Dominant [5]: Yes (more dominant epitopes are defined by being recognized by 3 or more donors/different studies)

3015 (FLNGSCGSV) [compound 3015]
Dominant [5]: Yes (more dominant epitopes are defined by being recognized by 3 or more donors/different studies)

1424 (FPQSAPHGV) [compound 1424]
Restriction [2]: CD8

1817 (KLGSLVVRC) [compound 1817]
Dominant [1]: Yes (more dominant epitopes are defined by being recognized by 3 or more donors/different studies)

1377 (ILPDPSKPSK) [compound 1377]
Restriction [2]: CD8

1418 (RASANLAATK) [compound 1418]
Restriction [2]: CD8

1444 (WFVTQRNFY) [compound 1444]
Restriction [2]: CD8

573 (ITILDGISQY) [compound 573]
Restriction [3]: CD8

2979 (IEYPIIGDEL) [compound 2979]
Dominant [5]: Yes (more dominant epitopes are defined by being recognized by 3 or more donors/different studies)

1014 (NTSRYWEPEFY) [compound 1014]
Restriction [4]: CD8

1728 (LYLQYIRKL) [compound 1728]
Dominant [1]: Yes (more dominant epitopes are defined by being recognized by 3 or more donors/different studies)

1702 (ASAFFGMSR) [compound 1702]
Dominant [1]: Yes (more dominant epitopes are defined by being recognized by 3 or more donors/different studies)

1725 (FYAYLRKHF) [compound 1725]
Dominant [1]: Yes (more dominant epitopes are defined by being recognized by 3 or more donors/different studies)

FIAGLIAIV [SEQ ID NO: 1520]
responses detected in patients (Rha et al., 37 of 112 and 2 of 40 patients): 5%

1775 (SLRPDTRYVL) [compound 1775]
Dominant [1]: Yes (more dominant epitopes are defined by being recognized by 3 or more donors/different studies)

1370 (QEVFAQVKQIY) [compound 1370]
Restriction [2]: CD8

1743 (AIMTRCLAV) [compound 1743]
Dominant [1]: Yes (more dominant epitopes are defined by being recognized by 3 or more donors/different studies)

984 (MLRIMASL) [compound 984]
Restriction [4]: CD8

1006 (YLPYPDPSRIL) [compound 1006]
Restriction [4]: CD8

2933 (KPRQKRTAT) [compound 2933]
Dominant [5]: Yes (more dominant epitopes are defined by being recognized by 3 or more donors/different studies)

536 (APSASAFFGM) [compound 536]
Restriction [3]: CD8

2958 (MVMCGGSLYV) [compound 2958]
Dominant [5]: Yes (more dominant epitopes are defined by being recognized by 3 or more donors/different studies)

594 (YLFDESGEFKL) [compound 594]
Dominant [6]: Yes (more dominant epitopes are defined by being recognized by 3 or more donors/different studies)
Restriction [3]: CD8

1387 (LTDEMIAQYT) [compound 1387]
Restriction [2]: CD8

1711 (VLSEARQHL) [compound 1711]
Dominant [1]: Yes (more dominant epitopes are defined by being recognized by 3 or more donors/different studies)

1734 (VVYRGTTTYK) [compound 1734]
Dominant [1]: Yes (more dominant epitopes are defined by being recognized by 3 or more donors/different studies)
